pEC50: −log10 of the molar value.
test system: AMPA receptors; experiment: AMPA ES cell FLIPR screen (AMPA potentiator assay); assay type: cell-based; conditions: murine ES cell-derived neurons, FLIPR Fluo-4 calcium, 32 uM AMPA challenge; * = geometric mean of 2 EC50 determinations
Experimental: The murine ES cell line used was E14-Sx1-16C, which has a targeted mutation in the Sox1 gene, a neuroectodermal marker, that offers G418 resistance when the Sox1 gene is expressed (Stem Cell Sciences). ES cells were maintained undifferentiated as previously described (Roach). […] ES cells were plated on gelatin-coated dishes (BD Biosciences), the media was changed daily and the cells were dissociated with 0.05% Trypsin EDTA (Invitrogen) every other day.
Embryoid Body Formation: Prior to embryoid body (EB) formation the ES cells were weaned from FBS onto Knockout Serum Replacement (KSR) (Invitrogen). To form EBs, ES cells were dissociated into a single cell suspension, then 3×10^6 cells were plated in bacteriology dishes (Nunc 4014) and grown as a suspension culture in NeuroEB-I medium that consisted of Knockout™ D-MEM (Invitrogen), supplemented with 10% KSR (Invitrogen), 0.2 mM L-Glutamine (Invitrogen), 0.1 mM MEM non-essential amino acids (Invitrogen), 30 μg/ml Gentamicin (Invitrogen), 1000 u/ml ESGRO (Chemicon), 0.1 mM 2-Mercaptoethanl (Sigma) and 150 ng/ml Transferrin (Invitrogen). The plates were put on a Stovall Belly Button shaker in an atmospheric oxygen incubator. The media was changed on day 2 of EB formation with NeuroEB-I and on day 4 with NeuroEB-II (NeuroEB-I plus 1 μg/ml mNoggin [R&D Systems]).
Neuronal Precursor Selection and Expansion: On day 5 of EB formation, EBs were dissociated with 0.05% Trypsin EDTA, and 4×10^6 cells/100 mm dish were plated on Laminin coated tissue culture dishes in Neuroll-G418 medium that consisted of a base medium of a 1:1 mixture of D-MEM/F12 supplemented with N2 supplements and NeuroBasal Medium supplemented with B27 supplement and 0.1 mM L-Glutamine (all from Invitrogen). The base medium was then supplemented with 10 ng/ml bFGF (Invitrogen), 1 μg/ml mNoggin, 500 ng/ml SHH—N, 100 ng/ml FGF-8b (R&D Systems), 1 μg/ml Laminin and 200 μg/ml G418 (Invitrogen) for selection of neuronal precursors expressing Sox-1. The plates were put in an incubator that contained 2% Oxygen and were maintained in these conditions. During the 6-day selection period, the Neuroll media was changed daily. On day 6, the surviving neuronal precursor foci were dissociated with 0.05% Trypsin EDTA and the cells were plated at a density of 1.5×10^6 cells/100 mm Laminin coated dish in Neuroll-G418 medium. The cells were dissociated every other day for expansion, and prepared for Cryopreservation at passage 3 or 4. The crypreservation medium contained 50% KSR, 10% Dimethyl Sulfoxide (DMSO) (Sigma) and 40% Neurol-G418I medium. Neuronal precursors were cryopreserved at a concentration of 4×10^6 cells/ml and 1 ml/cryovial in a controlled rate freezer overnight then transferred to an ultra-low freezer or liquid nitrogen for long-term storage. […]

SMILES	pEC50
CC(C)S(=O)(=O)N[C@H]1COC[C@]1(O)c1ccc(-c2ccc(C#N)s2)cc1 [Example 1, N-{(3S,4S)-4-[4-(5-cyano-2-thienyl)phenyl]-4-hydroxytetrahydrofuran-3-yl}propane-2-sulfonamide]	5.23
CC(C)S(=O)(=O)N[C@@H]1COC[C@@]1(O)c1ccc(-c2ccccc2)cc1 (stereo in doubt) [Example 4, N-[(3R,4R)-4-biphenyl-4-yl-4-hydroxytetrahydrofuran-3-yl]propane-2-sulfonamide]	< 4.50
CC(C)S(=O)(=O)N[C@@H]1COC[C@@]1(O)c1ccc(-c2ccc(C#N)s2)cc1 [Example 2, N-{(3R,4R)-4-[4-(5-cyano-2-thienyl)phenyl]-4-hydroxytetrahydrofuran-3-yl}propane-2-sulfonamide]	< 4.50
CC(C)S(=O)(=O)N[C@H]1COC[C@]1(O)c1ccc(-c2ccccc2)cc1 [Example 3, N-[(3S,4S)-4-biphenyl-4-yl-4-hydroxytetrahydrofuran-3-yl]propane-2-sulfonamide]	5.92

Source: patent US20110178165A1, “TETRAHYDROFURANYL SULFONAMIDES AND PHARMACEUTICAL COMPOSITIONS THEREOF” (Pfizer Inc., priority 2008, published 2011)
